30 compounds from the Deep4Chem optical property database can be followed below.

The nature of the data set: photoluminescence quantum yield (fraction); solvent given as SMILES.
Setting [1] is: in O=P(c1ccccc1)(c1ccccc1)c1ccccc1Oc1ccccc1P(=O)(c1ccccc1)c1ccccc1.

Under “in CS(C)=O”, `C[N+]1=C(/C=C/C=C2/N(CCC[N+](C)(C)C)c3ccc(S(=O)(=O)[O-])cc3C2(C)C)C(C)(C)c2ccccc21` yielded a photoluminescence quantum yield of 0.1.
Turning to `CC1=[N+]2C(=C(c3ccc(N4CCOCC4)cc3)c3ccc(C)n3[B-]2(F)F)C=C1`, the photoluminescence quantum yield (in C1CCCCC1) was 0.35; the photoluminescence quantum yield (in CC(=O)C(C)(C)C) was found to be 0.002; the photoluminescence quantum yield (in CC(C)=O) came out at 0.002; the photoluminescence quantum yield (in CCCCCC) was 0.388; the photoluminescence quantum yield (in CCOC(C)=O) is 0.008; the photoluminescence quantum yield (in CO) was 0.005. The photoluminescence quantum yield is, setting by setting: (in Cc1ccccc1) 0.32; (in ClC(Cl)Cl) 0.11.
For `CN(C)c1ccc2c(c1)C(C)(C)C1=CC(=[N+](C)C)C=CC1=C2C#Cc1ccccc1`, the photoluminescence quantum yield worked out at 0.148 (in CO) and 0.047 (in O).
The compound `CCCCc1cc2cccc[n+]2[b-]2c(-c3cccc4[b-]3[n+]3ccccc3cc4CCCC)cccc21` came in with a photoluminescence quantum yield (in C1CCCCC1) of 0.03.
As to `c1ccc2c3c(ccc2c1)-c1cccc2c1c-3cc1ccccc12`, under “in CCCCCCC”, the photoluminescence quantum yield worked out at 0.16.
As to `CN(C)c1ccc(C2=Nc3scc(-c4ccc(N(C)C)cc4)[n+]3[B-](F)(F)O2)cc1`, the photoluminescence quantum yield (in C1CCOC1) was determined as 0.01, the photoluminescence quantum yield (in CC#N) was found to be 0, the photoluminescence quantum yield (in Cc1ccccc1) was 0.66 and the photoluminescence quantum yield (in ClCCl) is 0.04.
For the compound `CC1=[N+]2C(=C(c3ccccc3)c3ccc(C)n3[B-]2(F)F)C=C1`, the photoluminescence quantum yield runs as follows: (in C1CCCCC1) 0.29; (in C1CCOC1) 0.25; (in CC#N) 0.17; (in CCOC(C)=O) 0.25; (in CO) 0.19; (in Cc1ccccc1) 0.42. Besides, for the setting “in ClC(Cl)Cl”, the photoluminescence quantum yield is 0.38.
With `Fc1nc(F)c(F)c(C#Cc2cc3c(cc2C#Cc2c(F)c(F)nc(F)c2F)OC2(CCCCC2)O3)c1F`, the photoluminescence quantum yield (in CC#N) was 0.9.
With `Cc1ccccc1C1=C2C=c3c(oc4ccccc34)=[N+]2[B-](F)(F)n2c1cc1c3ccccc3oc12`, the photoluminescence quantum yield (in C1CCCCC1) came to 0.88, the photoluminescence quantum yield (in CCOC(C)=O) came out at 0.93 and the photoluminescence quantum yield (in CO) turned out to be 0.88.
`COc1cc2c(cc1-c1ccsc1)Cc1c3c(c4c(c1-2)-c1cc(OC)c(-c2ccsc2)cc1C4)C(=O)N(CCC(C)C)C3=O` had a photoluminescence quantum yield (in C1CCOC1) of 0.55.
For `C(=C\c1cccnc1)/c1ccc(Nc2ccccc2)cc1`, the photoluminescence quantum yield is, setting by setting: (in CC#N) 0.25; (in CCCCCC) 0.37.
Under “in Cc1ccccc1”, `CCCCCCCCOC(=O)c1ccc(-c2cc3ccc4cc(-c5ccc(C(=O)OCCCCCCCC)cc5)cc5ccc(c2)c3c45)cc1` gave a photoluminescence quantum yield of 0.33.
Take `CC1=CC(C)=[N+]2C1=C(c1ccccc1)c1c(C)cc(/C=C/c3ccc(N(C)C)cc3)n1[B-]2(F)F`: the photoluminescence quantum yield (in CCOCC) stood at 0.83.
Compound `CC(C)(C)C#Cc1ccc2c3cccc4cccc(c5cccc1c52)c43` gave a photoluminescence quantum yield (in C1CCCCC1) of 0.91.
Regarding `N#Cc1cc2ccc(O)cc2oc1=N`, the photoluminescence quantum yield is, setting by setting: (in C1CCOC1) 0.0262; (in CC#N) 0.0086; (in CCOC(C)=O) 0.072; (in CS(C)=O) 0.0022; (in ClC(Cl)Cl) 0.0342.
For `CC(C)n1c(=O)c2cc3ccc4cccc5ccc(c2c1=O)c3c45`, the photoluminescence quantum yield (in ClC(Cl)Cl) came out at 0.49.
In the case of `C1=C/C2=C(\c3ccccc3)c3c[nH]c(c3)/C(c3ccccc3)=C3/C=CC(=N3)/C(c3ccccc3)=c3/cc/c([nH]3)=C(\c3ccccc3)C1=N2`, where the note is “in CC(=O)N(C)C”, the photoluminescence quantum yield came to 0.046.
In turn, `COc1ccc2c3ccc(OC)cc3n(-c3ccc(-c4nnc(C)o4)cc3)c2c1` had a photoluminescence quantum yield (in Cc1ccccc1) of 0.06.
For the compound `c1cc2ccc1CCCc1cc3c(cc1CCCc1ccc(c4nsnc14)CCC3)CCC2`, the photoluminescence quantum yield reads like this: (in C1CCCCC1) 0.12; (in CC#N) 0.02; (in ClC(Cl)Cl) 0.08.
As to `CCOC(=O)/C=C/C1=C(c2ccc(C)cc2)C2=Nc3c(-c4ccc(C)cc4)c(Br)c(-c4ccc(C)cc4)n3[B-](F)(F)[N+]2=C1c1ccc(C)cc1`, the photoluminescence quantum yield (in ClC(Cl)Cl) turned out to be 0.03.
The compound `c1ccc2c(c1)c1ccccc1n2-c1ccc2c(c1)c1ccccc1n2-c1cc2c3ccccc3n3c4ccccc4c(c1)c23` displayed a photoluminescence quantum yield under setting [1] of 0.53.
As to `c1csc(-c2c3ccc(=[N+]4CCCCC4)cc-3oc3cc(N4CCCCC4)ccc23)c1`, the photoluminescence quantum yield by setting is: (in CCO) 0.1; (in ClCCl) 0.33.
In turn, `O=C1CCCC2=C1C(c1ccccc1)c1c(c3ccccc3oc1=O)N2` (configuration not stated) had a photoluminescence quantum yield (in CS(C)=O) of 0.41.
Take `CC(C)(C)c1ccc(-c2ccc(C(C)(C)C)cc2)cc1`: the photoluminescence quantum yield (in C1CCCCC1) turned out to be 0.26.
Consider `F[B-]1(F)n2c(-c3ccccc3)cc(-c3ccccc3)c2C(c2ccccc2)=C2C(c3ccccc3)=CC(c3ccccc3)=[N+]21`, for which the photoluminescence quantum yield (in C1CCOC1) turned out to be 0.31.
As for `Cc1cc(-n2c3ccccc3c3cc4c(cc32)C2c3ccccc3C4c3ccccc32)c(C)cc1-c1nc(-c2ccccc2)nc(-c2ccccc2)n1`, the photoluminescence quantum yield by setting is: (in Cc1ccccc1) 0.46; under setting [1], 0.3.
As to `COC(=O)C(Cc1ccc2oc(-c3ccc(N(C)c4ccccc4)cc3)nc2c1)NC(=O)OC(C)(C)C` (configuration not stated), the photoluminescence quantum yield was 0.998 (in C1CCCCC1); 0.27 (in C1CCOC1); 0.73 (in C1COCCO1); 0.52 (in CC1CCCO1); 0.11 (in CC1COC(=O)O1); 0.11 (in CC#N). Besides, the photoluminescence quantum yield reads like this: (in CC(C)=O) 0.19; (in CC(C)CC(C)(C)C) 1; (in CC(C)CO) 0.2; (in CC(C)O) 0.19; (in CC(O)CO) 0.11; (in CCC(C)CC) 0.97. The photoluminescence quantum yield by setting is: (in CCCCC) 1; (in CCCCCC) 1; (in CCCCCCCCC) 0.95; (in CCCCCCCCCC) 1; (in CCCCCCCO) 0.21; (in CCCCCCO) 0.22. In addition, the photoluminescence quantum yield by setting is: (in CCCCCO) 0.28; (in CCCCO) 0.18; (in CCO) 0.07; (in CCOC(C)=O) 0.39; (in CCOCC) 0.6; (in CN(C)C=O) 0.16. Also, the photoluminescence quantum yield runs as follows: (in CO) 0.03; (in COCCOC) 0.07; (in CS(C)=O) 0.15; (in Cc1ccccc1) 0.78; (in Cc1ccccc1C) 0.84; (in ClC(Cl)Cl) 0.58. The compound further yielded a photoluminescence quantum yield (in ClCCl) of 0.45; a photoluminescence quantum yield (in NC=O) of 0.02; a photoluminescence quantum yield (in OC1CCCCC1) of 0.18; a photoluminescence quantum yield (in OCCO) of 0.03; a photoluminescence quantum yield (in c1ccccc1) of 0.76.
In turn, `Cc1ccc(N2C(c3ccccc3[N-]S(=O)(=O)c3ccc(C)cc3)=[NH+]C(c3ccccc3)C2c2ccccc2)cc1` (configuration not stated) registered a photoluminescence quantum yield (in Cc1ccccc1) of 0.396.
Take `CCOC(=O)c1c2c3c(ccc(Br)c3c3cc4c(cc13)[Si](C)(C)O[Si]4(C)C)N(C)C2=O`: for the setting “in CC#N”, the photoluminescence quantum yield was determined as 0.31.
For the compound `c1ccc(-c2cc(-c3ccccc3)cc(-c3ccc4c(c3)C3(c5ccccc5-4)c4ccccc4-c4c3c3c5ccccc5c(-c5cc(-c6ccccc6)cc(-c6ccccc6)c5)cc3c3ccccc43)c2)cc1` (configuration not stated), for the setting “in Cc1ccccc1”, the photoluminescence quantum yield was found to be 0.87.
